These are literature values, as cited in US20080293709A1, “Novel 2-Amino-Heterocycles Useful in the Treatment of Abeta-Related Pathologies” (AstraZeneca AB, priority 2005, published 2008).

The target in the data set is BACE (Homo sapiens, UniProt P56817).

Non-standard residues stand in square brackets, D forms with d. Residues, ends and D or L forms follow the SMILES beside them. *: point of attachment. Sta = CC(C)C[C@H](N)[C@@H](O)CC(=O)O; Isovaleryl = CC(C)CC(=O)*

BACE, sequence (P56817 46-501): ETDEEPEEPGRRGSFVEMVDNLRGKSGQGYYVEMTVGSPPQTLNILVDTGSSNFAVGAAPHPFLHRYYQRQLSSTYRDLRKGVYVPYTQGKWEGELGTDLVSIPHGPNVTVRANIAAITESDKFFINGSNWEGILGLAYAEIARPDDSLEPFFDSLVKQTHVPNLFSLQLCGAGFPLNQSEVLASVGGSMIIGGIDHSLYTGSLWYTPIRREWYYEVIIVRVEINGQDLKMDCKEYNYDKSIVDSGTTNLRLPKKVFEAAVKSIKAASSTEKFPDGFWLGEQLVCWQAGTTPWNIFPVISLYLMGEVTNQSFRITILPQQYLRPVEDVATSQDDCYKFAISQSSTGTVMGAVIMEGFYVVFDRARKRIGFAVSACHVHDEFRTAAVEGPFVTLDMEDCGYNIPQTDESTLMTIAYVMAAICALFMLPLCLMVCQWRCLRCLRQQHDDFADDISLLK

For `CC(C)CC(=O)N[C@H](C(=O)N[C@H](C(=O)N[C@@H](CC(C)C)[C@@H](O)CC(=O)N[C@@H](C)C(=O)N[C@@H](CC(C)C)[C@@H](O)CC(=O)O)C(C)C)C(C)C` [pepstatin] (Isovaleryl-VV[Sta]A[Sta]-OH), the “inhibition of BACE” value is reported as “inhibited weakly”.
